Measurements as given in US20220112204A1, “SUBSTITUTED DIHYDROPYRANOPYRIMIDINE COMPOUNDS AS KRAS INHIBITORS” (ACCUTAR BIOTECHNOLOGY INC., priority 2020, published 2022).
Like-named read-outs stand apart in the source and are kept apart here.

Assays:
[1] = test system: phospho-ERK1/2 (Thr202/Tyr204) in MIA PaCa-2 cell line; assay: pERK and ERK Western blot analysis, MIA PaCa-2; type: cell-based; details: Homo sapiens
Method: (§1) MIA PaCa-2 (ATCC), NCI-H358 (ATCC), NCI-H23 (ATCC), SW837 and A549 (ATCC) cells were plated in 24-well plates at 2×10^5cells/well in RPMI growth medium containing 10% FBS and 1× Penicillin Streptomycin. They were then incubated at 37° C. overnight. The following day, the test compound was administered to the cells by using 1000× compound stock solution prepared in DMSO at various concentrations. After administration of the compound, the cells were then incubated at 37° C. for 4 hours. Upon completion, the cells were washed with PBS and protein was collected in Laemmli sample buffer (1×; VWR International). Proteins in cell lysate were separated by SDS-PAGE and transferred to Odyssey nitrocellulose membranes (Licor) with iblot® dry blotting transfer system (ThermoFisher). Nonspecific binding was blocked by incubating membranes with Intercept Blocking Buffer (Licor) for 1 hour at room temperature with gentle shaking. The membranes were then incubated overnight at 4° C. with primary antibodies rabbit anti-phospho p44/42 MAPK (Erk1/2) (1:2,000, Cell Signaling, 4370) and mouse anti-p44/42 MAPK (Erk1/2) (1:1,000, Cell Signaling, 4696) diluted in Intercept Blocking Buffer containing 0.1% Tween 20. After washing 3 times with TBS-T, the membranes were incubated with IRDye® 800CW goat anti-rabbit IgG (1:20,000, Licor) or IRDye® 680CW goat anti-mouse IgG (1:20,000, Licor) for 1 hour. After TBS-T washes, membranes were rinsed in TBS and scanned on Odyssey® CLx Imaging System (Licor). The bands were quantified using Image Studio™ Software (Licor).

[2] = test system: phospho-ERK1/2 (Thr202/Tyr204) in NCI-H358 cells; assay: pERK and ERK Western blot analysis, NCI-H358; type: cell-based; details: Homo sapiens; NCI-H358, KRAS G12C, 4 hours
Method: as §1, with “After washing 3 times with TBS-T, the membranes were incubated with IRDye® 800CW goat anti-rabbit IgG (1:20,000, Licor) or IRDye® 680CW goat anti-mouse IgG (1:20,000, Licor) for 1 hour. After TBS-T washes, membranes were rinsed in TBS and scanned on Odyssey® CLx Imaging System (Licor).” left out

SW837 cells = assay: 3D cell growth assay (CellTiter-Glo), SW837; type: cell-based; details: Homo sapiens, 144 h, SW837, KRAS G12C, 6 days, read-out: 3D growth inhibition GI50
Method: (§2) MIA PaCa-2 (ATCC), NCI-H358 (ATCC), NCI-H23 (ATCC), SW837 and A549 (ATCC) cells were plated in round bottom 96-well spheroid microplates (Corning, 4520) at 3000 cells/well in 90 ul of RPMI growth medium containing 10% FBS and 1% Penicillin Streptomycin. Cells were incubated at 37° C. overnight. The following day, the test compound was administered to the cells by using 10× compound stock solution prepared in growth medium at various concentrations. After administration of the compound, cells were then incubated at 37° C. for 6 days. Before CellTiter-Glo assay, the plates were equilibrated at room temperature for approximately 10 minutes. 100 ul of CellTiter-Glo® Reagent (Promega, G7573) was added to each well. The plates were then incubated at room temperature for 10 minutes and luminescence was recorded by EnSpire plate reader (PerkinElmer). Table 6 illustrates growth inhibition (G150) by exemplary compounds 1-10 of the present disclosure in a MIA PaCa-2 cell line 6 days after administration in 3D cell culture. A: >0.1 nM and <1 nM; B: >=1 nM and <10 nM; C: >=10 nM and <100 nM; D: >100 nM.

[3] = test system: phospho-ERK1/2 (Thr202/Tyr204) in SW837 cells; assay: pERK and ERK Western blot analysis, SW837; type: cell-based; details: Homo sapiens; SW837, KRAS G12C, 4 hours
Method: as §1, with “After washing 3 times with TBS-T, the membranes were incubated with IRDye® 800CW goat anti-rabbit IgG (1:20,000, Licor) or IRDye® 680CW goat anti-mouse IgG (1:20,000, Licor) for 1 hour. After TBS-T washes, membranes were rinsed in TBS and scanned on Odyssey® CLx Imaging System (Licor).” left out

NCI-H23 cells = assay: 3D cell growth assay (CellTiter-Glo), NCI-H23; type: cell-based; details: Homo sapiens, 144 h, NCI-H23, KRAS G12C, 6 days, read-out: 3D growth inhibition GI50
Method: as §2

NCI-H358 cells = assay: 3D cell growth assay (CellTiter-Glo), NCI-H358; type: cell-based; details: Homo sapiens, 144 h, NCI-H358, KRAS G12C, 6 days, read-out: 3D growth inhibition GI50
Method: as §2

KRAS-G12C mutant [4] = biological target: T1, KRAS-G12C mutant (Homo sapiens, UniProt P01116, G12C); assay: Gel shift assay (SDS-PAGE) for covalent modification of KRAS G12C; type: binding; details: 0.5 μM compound, 1 μM GDP-bound KRAS G12C, 25° C., 5 minutes, shift indicative of covalent cysteine conjugation
Method: 0.5 μM compounds were incubated with 1 μM GDP-bound untagged KRAS (G12C or wild type) proteins at 25° C. for 5 minutes in 40 μl reaction buffer (50 mM Tris, pH 7.5, 100 mM NaCl, 1 mM MgCl2, 1 mM DTT). The reactions were quenched with 10 μI SDS-PAGE sample loading buffer (250 mM Tris-HCl, pH 6.8, 10% SDS, 0.5% bromophenol blue, 50% glycerol and 50 mM DTT) and then analyzed via SDS-PAGE using 4%-20% gradient polyacrylamide gel followed by Coomassie blue stain.
FIG. 1 illustrates mobility change of KRAS-G12C mutant or wild type proteins on SDS-PAGE after 5 minutes of coincubation at 25° C. with exemplary compounds of the present disclosure, indicative of covalent cysteine conjugation.
Table 3 summarizes molecular weight shift of KRAS-G12C mutant on SDS-PAGE after 5 mins of coincubation at 25° C. with exemplary compounds of the present disclosure, indicative of covalent cysteine conjugation.

MIA PaCa-2 cell line = assay: 3D cell growth assay (CellTiter-Glo), MIA PaCa-2; type: cell-based; details: Homo sapiens, MIA PaCa-2, 144 h, 6 days, read-out: 3D growth inhibition GI50
Method: as §2

A549 cells = assay: 3D cell growth assay (CellTiter-Glo), A549; type: cell-based; details: Homo sapiens, 144 h, A549, KRAS G12S, 6 days, read-out: 3D growth inhibition GI50
Method: as §2

KRAS-G12C mutant [5] = biological target: T1, KRAS-G12C mutant; assay: TR-FRET assay of SOS1-assisted KRAS GDP/GTP exchange; type: biochemical
Method: GDP form of 6*His tagged KRAS-G12C was diluted to 40 nM and incubated with 8 nM LanthaScreen™ Elite Terbium-anti-HIS Antibody (Thermo, catalog number PV5863) in reaction buffer containing 20 mM Tris, pH 7.5, 100 mM NaCl, 1 mM DTT, 0.1% Tween20, 0.05% BSA, 2% DMSO, 1 mM MgCl2. After 1 hour-incubation at 4° C., proteins were placed in 384 well plate (PerkinElmer, PROXIPLATE-384 PLUS). Then compounds with different concentrations were added to the proteins. BODIPY labeled GTP (Thermo, catalog number G12411) and SOS-1 (or reaction buffer as control) were then added to reactions at 200 nM and 1 μM to trigger the exchange of GDP to BODIPY-GTP. TR-FRET emission signals were determined at 520 nm and 620 nm on a Envision® Multilabel Plate Reader (PerkinElmer) using a 337 nm laser as light source. All data were analyzed and plotted using Graph Pad Prism software (version 8.0.1). Raw TR-FRET data were converted to percentage of inhibition (relative to DMSO) using the following equations: […]
b) For a given test compound concentration X:
Signal (X)=Emission ratio (SOS-1 & GTP)—Emission ratio (buffer & GTP)
c) Percentage of inhibition at concentration X=[1−Signal(X)/Signal (DMSO)]*100%
The […] values were determined by nonlinear regression of plots of [inhibitor] vs. percentage of inhibition with variable slope. Table 4 summarizes inhibition of SOS1-assisted GDP/GTP exchanging activity of KRAS-G12C mutant with exemplary compounds of the present disclosure.

[6] = test system: phospho-ERK1/2 (Thr202/Tyr204) in A549 cells; assay: pERK and ERK Western blot analysis, A549; type: cell-based; details: Homo sapiens; A549, KRAS G12S, 4 hours
Method: as §1, with “After washing 3 times with TBS-T, the membranes were incubated with IRDye® 800CW goat anti-rabbit IgG (1:20,000, Licor) or IRDye® 680CW goat anti-mouse IgG (1:20,000, Licor) for 1 hour. After TBS-T washes, membranes were rinsed in TBS and scanned on Odyssey® CLx Imaging System (Licor).” left out

[7] = test system: phospho-ERK1/2 (Thr202/Tyr204) in NCI-H23 cells; assay: pERK and ERK Western blot analysis, NCI-H23; type: cell-based; details: Homo sapiens; NCI-H23, KRAS G12C, 4 hours
Method: as §1, with “After washing 3 times with TBS-T, the membranes were incubated with IRDye® 800CW goat anti-rabbit IgG (1:20,000, Licor) or IRDye® 680CW goat anti-mouse IgG (1:20,000, Licor) for 1 hour. After TBS-T washes, membranes were rinsed in TBS and scanned on Odyssey® CLx Imaging System (Licor).” left out

[8] = MIA PaCa-2, MiaPaCa2, KRAS G12C, 4 hours, read-out: pERK IC50
[9] = MIA PaCa-2 cell line, 4 hours after incubation, read-out: 2D pERK IC50
[10] = MIA PaCa-2 cell line, 3D cell culture

Row | IC50 [1, 8] [nM] | IC50 [1, 9] [nM] | IC50 [2] [nM] | GI50 (SW837 cells) [nM] | IC50 [3] [nM] | GI50 (NCI-H23 cells) [nM] | GI50 (NCI-H358 cells) [nM] | KRAS-G12C molecular weight shift (KRAS-G12C mutant [4]) | GI50 (MIA PaCa-2 cell line; [10]) [nM] | GI50 (MIA PaCa-2 cell line; MiaPaCa2, KRAS G12C, 3D) [nM] | GI50 (A549 cells) [nM] | IC50 (KRAS-G12C mutant [5]) [nM] | IC50 [6] [nM] | IC50 [7] [nM] | SMILES
1 | 10.1 | 1 to 10 | 12 | 8.6 | 5.9 | 8.4 | 0.7 | Yes | 0.1 to 1 | 0.8 | > 300 | 22 | > 30000 | 6.4 | C=C(F)C(=O)N1CCN(c2nc(OCC34CCCN3CCC4)nc3c2CO[C@H](c2cccc4cccc(Cl)c24)C3)C[C@@H]1CC#N (single isomer, unassigned) [Compound 55]
2 | – | 10 to 100 | – | – | – | – | – | Yes | 1 to 10 | – | – | 60 | – | – | C=C(F)C(=O)N1CCN(c2nc(OCC34CCCN3CCC4)nc3c2C(C)OC(c2cccc4cccc(Cl)c24)C3)C[C@@H]1CC#N (stereo partly drawn) [Compound 59, 2-((2S)-4-(7-(8-chloronaphthalen-1-yl)-5-methyl-2-((tetrahydro-1H-pyrrolizin-7a(5H)-yl)methoxy)-7,8-dihydro-5H-pyrano[4,3-d]pyrimidin-4-yl)-1-(2-fluoroacryloyl)piperazin-2-yl)acetonitrile]
3 | – | 10 to 100 | – | – | – | – | – | Yes | 10 to 100 | – | – | 78 | – | – | C=C(F)C(=O)N1CCN(c2nc(OCC34CCCN3CCC4)nc3c2[C@H](C)O[C@H](c2cccc4c2CCCC4)C3)C[C@@H]1CC#N [Compound 61, 2-((S)-1-(2-fluoroacryloyl)-4-((5S,7S)-5-methyl-2-((tetrahydro-1H-pyrrolizin-7a(5H)-yl)methoxy)-7-(5,6,7,8-tetrahydronaphthalen-1-yl)-7,8-dihydro-5H-pyrano[4,3-d]pyrimidin-4-yl)piperazin-2-yl)acetonitrile]
4 | – | 1 to 10 | – | – | – | – | – | Yes | 0.1 to 1 | – | – | 40 | – | – | C=C(F)C(=O)N1CCN(c2nc(OC[C@@]34CCCN3C[C@H](F)C4)nc3c2COC(c2cccc4cccc(Cl)c24)C3)C[C@@H]1CC#N (stereo partly drawn) [Compound 62, 2-((2S)-4-(7-(8-chloronaphthalen-1-yl)-2-(((2R,7aS)-2-fluorotetrahydro-1H-pyrrolizin-7a(5H)-yl)methoxy)-7,8-dihydro-5H-pyrano[4,3-d]pyrimidin-4-yl)-1-(2-fluoroacryloyl)piperazin-2-yl)acetonitrile]
5 | 2.4 | 1 to 10 | 2.5 | 4.1 | 1.2 | 2.1 | 0.2 | Yes | 0.1 to 1 | 0.3 | > 300 | 20 | > 30000 | 1.7 | C=C(F)C(=O)N1CCN(c2nc(OC[C@@]34CCCN3C[C@H](F)C4)nc3c2CO[C@H](c2cccc4cccc(Cl)c24)C3)C[C@@H]1CC#N [Compound 64, 2-((S)-4-((S)-7-(8-chloronaphthalen-1-yl)-2-(((2R,7aS)-2-fluorotetrahydro-1H-pyrrolizin-7a(5H)-yl)methoxy)-7,8-dihydro-5H-pyrano[4,3-d]pyrimidin-4-yl)-1-(2-fluoroacryloyl)piperazin-2-yl)acetonitrile]
6 | – | 10 to 100 | – | – | – | – | – | Yes | 1 to 10 | – | – | 30 | – | – | C=C(F)C(=O)N1CCN(c2nc(OCC34CCCN3CCC4)nc3c2[C@H](C)O[C@H](c2cccc4cccc(C)c24)C3)C[C@@H]1CC#N [Compound 66, 2-((S)-1-(2-fluoroacryloyl)-4-((5S,7S)-5-methyl-7-(8-methylnaphthalen-1-yl)-2-((tetrahydro-1H-pyrrolizin-7a(5H)-yl)methoxy)-7,8-dihydro-5H-pyrano[4,3-d]pyrimidin-4-yl)piperazin-2-yl)acetonitrile]
7 | – | 10 to 100 | – | – | – | – | – | Yes | 1 to 10 | – | – | 20 | – | – | C=C(F)C(=O)N1CCN(c2nc(OCC34CCCN3CCC4)nc3c2CO[C@H](c2cccc4c2CCCC4)C3)C[C@@H]1CC#N [Compound 69, 2-((S)-1-(2-fluoroacryloyl)-4-((S)-2-((tetrahydro-1H-pyrrolizin-7a(5H)-yl)methoxy)-7-(5,6,7,8-tetrahydronaphthalen-1-yl)-7,8-dihydro-5H-pyrano[4,3-d]pyrimidin-4-yl)piperazin-2-yl)acetonitrile]
